Laboratory results: patent US10385108B2, “Peptide analogs of alpha-melanocyte stimulating hormone” (Genzyme Corporation, priority 2008, dated 2019)
Where “and” joins values, the source holds several entries; their conditions need not be identical. Equal entries are not always repeated. Where a SMILES comes first, the peptide text is derived from it. [ ]: non-standard residue; d: D form.

Key:
C57BL/6 mice = test: MOG35-55 induced EAE model; format: in vivo; details: 2 mg/kg
[1] = system: B16-F1 murine melanoma cells; test: Intracellular cAMP in B16-F1 melanoma cells; format: cell-based; details: for cAMP levels (in words): peptide at 1 μg/ml; for EC50: B16-F1 cells, 10^-4-10^-11 M, 30 min, IBMX
Method: B16-F1 (melanoma cell line) cells from American Type Culture Collection (Manassas, Va.) were seeded into flat bottom 96 well plates at 5×10^4/well and cultured overnight in DMEM (Cambrex, Walkersville, Md.) supplemented with 2 mM glutamine, antibiotics (100 U/ml penicillin and 100 […]) and 10% heat-inactivated fetal bovine serum (Invitrogen, Grand Island, N.Y.). […] Cells were lysed and intracellular cAMP levels were measured by an enzyme immunoassay kit (Amersham Biosciences, Piscataway, N.J.). Forskolin (Sigma, St. Louis, Mo.) at 100 μM served as positive controls.
cAMP levels in B16-F1 melanoma cells after treatment with native α-MSH, RI α-MSH, or a scrambled control peptide were examined. The […] melanoma cell line expresses a high number of MCR1 receptors (3000-4000 receptors/cell) compared with macrophages cell lines which express only 100-200 receptors/cell. Therefore we selected to examine the effect of the RI α-MSH treatment on the melanoma cell line. Murine melanoma B16-F1 cells were treated with native α-MSH, RI α-MSH, or control scrambled peptide at concentrations 1 pg/ml-1 μg/ml. After 30 min, cells were lysed and intracellular cAMP was measured by an enzyme immunoassay. […] However, a higher concentration of RI α-MSH (100 ng/ml) was necessary to increase cAMP compared with native α-MSH which increased cAMP at a 10 pg/ml concentration. This difference in concentration of peptide necessary to increase cAMP levels may be the result of the binding affinity to the MCR1 receptor.
Murine melanoma B16-F1 cells were treated with native α-MSH, RI α-MSH, scrambled peptide control, KPV, or alanine substituted peptides of RI α-MSH at 1 μg/ml (FIG. 7B). […] Peptides designated 810, 811, and 812 have alanine substitutions in the central core tetrapeptide sequence (D-Trp D-Arg D-Phe D-His region; AA 5-8) (variant disclosed in SEQ ID NO:2) proposed to be involved in native α-MSH binding to the melanocortin receptor and its biological activity. […] The residues in the core tetrapeptide (wrfh) (variant disclosed in SEQ ID NO:2) and to a lesser extent, the methionine 4 of RI-MSH are critical for binding to MC1R.
B16-F1 murine melanoma cells were cultured into 96 well plates 5×10^4 cells/well overnight in media with L-glutamine and pen/strep and FBS. Media was removed and new media with IBMX was added to the cells for 1 hr. Cells were then treated with RI α-MSH, or RI α-MSH peptide analogs (890, 891, 892, 893, 894 or 895). Cells were lysed after 30 min using a cAMP assay kit and supernatant were used in the assay. Forskolin at 10 μM served as positive controls.
Intracellular cAMP was measured using a cAMP competition Assay Kit (Amersham Biosciences). All cell lysate samples were diluted 1:100 for analysis.
Murine melanoma B16-F1 cells were treated with RI α-MSH, or RI α-MSH analogs (869, 872, 880, 878, 886 and 890-895) at a concentration range of 10^−4-10^−11 M. cAMP levels from cells treated with RI α-MSH, or RI α-MSH analogs. […] See FIG. 22 for graphical data and Table 2 for EC50 data.

MC1R = MC1R (Homo sapiens, UniProt Q01726); test: Competitive binding with 125I-NDP-MSH, HEK293 membrane preparations, MC1R; details: for Ki: Ki MC1R, competition with 125I-NDP-MSH;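 as to all read-outs here: Read-out: receptor-bound radioligand retained by filtration and counted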
MC1R, sequence (Q01726 whole entry): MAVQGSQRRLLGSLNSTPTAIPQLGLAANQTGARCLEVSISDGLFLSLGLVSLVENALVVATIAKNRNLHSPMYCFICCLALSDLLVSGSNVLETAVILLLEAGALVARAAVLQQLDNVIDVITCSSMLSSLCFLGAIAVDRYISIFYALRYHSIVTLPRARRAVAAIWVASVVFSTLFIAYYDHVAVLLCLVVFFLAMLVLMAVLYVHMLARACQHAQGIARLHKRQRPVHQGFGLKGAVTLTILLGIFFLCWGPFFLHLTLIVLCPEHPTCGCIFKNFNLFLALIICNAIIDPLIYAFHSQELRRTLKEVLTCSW
Method: (§1) Binding analysis was done by Cerep laboratories (Paris, France) with coded samples.
(§2) The mixtures were filtered through 96-well GFC filters (Millipore, Billerica, Mass.), washed 3 times with binding buffer without BSA, dried and counted.
(§3) A competitive binding assay using a MCR panel including MCR 1, 3, 4, and 5 was performed.

MC3R = MC3R (Homo sapiens, UniProt P41968); test: Competitive binding with 125I-NDP-MSH, HEK293 membrane preparations, MC3R
MC3R, sequence (P41968 whole entry): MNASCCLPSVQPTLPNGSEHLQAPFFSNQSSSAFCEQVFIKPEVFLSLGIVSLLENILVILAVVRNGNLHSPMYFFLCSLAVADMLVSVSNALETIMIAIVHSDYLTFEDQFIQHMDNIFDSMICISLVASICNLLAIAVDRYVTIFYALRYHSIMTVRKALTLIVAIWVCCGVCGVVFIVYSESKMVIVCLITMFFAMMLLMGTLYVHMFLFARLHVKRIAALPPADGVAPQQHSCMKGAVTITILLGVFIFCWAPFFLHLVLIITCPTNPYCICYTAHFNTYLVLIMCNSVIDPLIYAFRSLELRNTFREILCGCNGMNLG
Method: as §1, §2, §3

MC4R = MC4R (Homo sapiens, UniProt P32245); test: Competitive binding with 125I-NDP-MSH, HEK293 membrane preparations, MC4R
MC4R, sequence (P32245 whole entry): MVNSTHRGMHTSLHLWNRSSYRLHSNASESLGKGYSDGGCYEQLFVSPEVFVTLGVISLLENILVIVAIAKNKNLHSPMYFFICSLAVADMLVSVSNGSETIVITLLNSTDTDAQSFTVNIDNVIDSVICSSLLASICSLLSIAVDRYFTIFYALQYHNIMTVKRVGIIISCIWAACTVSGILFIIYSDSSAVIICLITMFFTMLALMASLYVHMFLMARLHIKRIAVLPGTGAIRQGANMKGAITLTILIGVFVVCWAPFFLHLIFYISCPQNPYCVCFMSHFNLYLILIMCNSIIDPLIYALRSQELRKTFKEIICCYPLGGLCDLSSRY
Method: as §1, §2, §3

MC5R = MC5R (Homo sapiens, UniProt P33032); test: Competitive binding with 125I-NDP-MSH, HEK293 membrane preparations, MC5R; details: Ki MC5R, competition with 125I-NDP-MSH; cells noted in μM
MC5R, sequence (P33032 whole entry): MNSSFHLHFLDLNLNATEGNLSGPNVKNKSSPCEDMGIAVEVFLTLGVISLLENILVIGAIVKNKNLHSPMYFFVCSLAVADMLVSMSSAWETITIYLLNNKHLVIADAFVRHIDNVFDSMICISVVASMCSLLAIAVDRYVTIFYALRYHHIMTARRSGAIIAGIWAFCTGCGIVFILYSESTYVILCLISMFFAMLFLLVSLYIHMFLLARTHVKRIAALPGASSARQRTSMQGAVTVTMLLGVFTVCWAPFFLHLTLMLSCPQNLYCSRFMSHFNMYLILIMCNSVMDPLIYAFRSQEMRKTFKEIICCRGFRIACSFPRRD
Method: as §1, §2, §3

SMILES	Ki (MC1R)	EC50 [1]	Ki (MC3R)	Ki (MC5R)	cAMP levels (in words) [1]	further results
C[C@@H]1C[C@H]2[C@@H]3CCC4=CC(=O)C=C[C@]4(C)[C@@]3(F)[C@@H](O)C[C@]2(C)[C@@]1(O)C(=O)CO [Dexamethasone, dexamethasone, reference compound]						maximum percent incidence of disease (C57BL/6 mice): 40%
C=C[C@@]1(C)CC(=O)[C@]2(O)[C@@]3(C)[C@@H](O)CCC(C)(C)[C@@H]3[C@H](O)[C@H](OC(C)=O)[C@@]2(C)O1 [Forskolin, reference compound]						cAMP ([1]; 100 μM, positive control): 3455.39±406.6 and 3294.82±54.53
CSCC[C@@H](NC(=O)[C@@H](CCC(=O)O)NC(=O)[C@@H](Cc1c[nH]cn1)NC(=O)[C@@H](C)NC(=O)[C@@H](CCCNC(=N)N)NC(=O)[C@@H](Cc1c[nH]c2ccccc12)NC(=O)CNC(=O)[C@@H](CCCCN)NC(=O)[C@H]1CCCN1C(=O)[C@H](NC(C)=O)C(C)C)C(=O)N[C@H](CO)C(=O)N[C@H](Cc1ccc(O)cc1)C(=O)N[C@H](CO)C(N)=O [compound 810, vpkGwrahemsys]					no increase in cAMP activity	
CSCC[C@@H](NC(=O)[C@@H](CCC(=O)O)NC(=O)[C@@H](Cc1c[nH]cn1)NC(=O)[C@@H](Cc1ccccc1)NC(=O)[C@@H](C)NC(=O)[C@@H](Cc1c[nH]c2ccccc12)NC(=O)CNC(=O)[C@@H](CCCCN)NC(=O)[C@H]1CCCN1C(=O)[C@H](NC(C)=O)C(C)C)C(=O)N[C@H](CO)C(=O)N[C@H](Cc1ccc(O)cc1)C(=O)N[C@H](CO)C(N)=O [compound 811, vpkGwafhemsys] (Ac-[dV][dP][dK]G[dW][dA][dF][dH][dE][dM][dS][dY][dS]-NH2)					no increase in cAMP activity	
CSCC[C@@H](NC(=O)[C@@H](CCC(=O)O)NC(=O)[C@@H](Cc1c[nH]cn1)NC(=O)[C@@H](Cc1ccccc1)NC(=O)[C@@H](CCCNC(=N)N)NC(=O)[C@@H](C)NC(=O)CNC(=O)[C@@H](CCCCN)NC(=O)[C@H]1CCCN1C(=O)[C@H](NC(C)=O)C(C)C)C(=O)N[C@H](CO)C(=O)N[C@H](Cc1ccc(O)cc1)C(=O)N[C@H](CO)C(N)=O [compound 812, vpkGarfhemsys] (Ac-[dV][dP][dK]G[dA][dR][dF][dH][dE][dM][dS][dY][dS]-NH2)					no increase in cAMP activity	
CCCCSCC[C@@H](NC(=O)[C@@H](CCC(=O)O)NC(=O)[C@@H](Cc1c[nH]cn1)NC(=O)[C@@H](Cc1ccccc1)NC(=O)[C@@H](CCCNC(=N)N)NC(=O)[C@@H](Cc1c[nH]c2ccccc12)NC(=O)CNC(=O)[C@@H](CCCCN)NC(=O)[C@H]1CCCN1C(=O)[C@H](NC(C)=O)C(C)C)C(=O)N[C@H](CO)C(=O)N[C@H](Cc1ccc(O)cc1)C(=O)N[C@H](CO)C(N)=O [compound 878, vpkGwrfhe(D-buthionine)sys]	2.3 nM		~40000 nM	~30 µM		Ki (MC4R): > 30000 nM
CSCC[C@H](NC(=O)[C@H](CO)NC(=O)[C@H](Cc1ccc(O)cc1)NC(=O)[C@H](CO)NC(C)=O)C(=O)N[C@@H](CCC(=O)O)C(=O)N[C@@H](Cc1c[nH]cn1)C(=O)N[C@@H](CC1CCCCC1)C(=O)N[C@@H](CCCNC(=N)N)C(=O)N[C@@H](Cc1c[nH]c2ccccc12)C(=O)NCC(=O)N[C@@H](CCCCN)C(=O)N1CCC[C@H]1C(=O)N[C@H](C(N)=O)C(C)C [compound 892, SYSMEH(L-Cha)RWGKPV]	0.51 nM	21 nM				

Continued, in another order:

Ki (MC1R)	EC50 [1]	Ki (MC3R)	Ki (MC5R)	SMILES	cAMP levels (in words) [1]	further results
1400 ± 190 nM				CC(=O)N[C@@H](C(=O)N1CCC[C@@H]1C(=O)N[C@H](CCCCN)C(=O)NCC(=O)N[C@H](Cc1c[nH]c2ccccc12)C(=O)N[C@H](CCCNC(=N)N)C(=O)N[C@H](Cc1ccccc1)C(=O)N[C@H](Cc1c[nH]cn1)C(=O)N[C@H](CCC(=O)O)C(=O)N[C@H](C)C(=O)N[C@H](CO)C(=O)N[C@H](Cc1ccc(O)cc1)C(=O)N[C@H](CO)C(N)=O)C(C)C [compound 807, vpkGwrfheasys] (Ac-[dV][dP][dK]G[dW][dR][dF][dH][dE][dA][dS][dY][dS]-NH2)	reduction in cAMP accumulation	
1200 ± 270 nM				CSCC[C@@H](NC(=O)[C@@H](CCC(=O)O)NC(=O)[C@@H](C)NC(=O)[C@@H](Cc1ccccc1)NC(=O)[C@@H](CCCNC(=N)N)NC(=O)[C@@H](Cc1c[nH]c2ccccc12)NC(=O)CNC(=O)[C@@H](CCCCN)NC(=O)[C@H]1CCCN1C(=O)[C@H](NC(C)=O)C(C)C)C(=O)N[C@H](CO)C(=O)N[C@H](Cc1ccc(O)cc1)C(=O)N[C@H](CO)C(N)=O [compound 809, vpkGwrfaemsys] (Ac-[dV][dP][dK]G[dW][dR][dF][dA][dE][dM][dS][dY][dS]-NH2)	reduction in cAMP accumulation	
13.5 nM	2000 nM			CSCC[C@@H](NC(=O)[C@@H](CCC(=O)O)NC(=O)[C@@H](CCCNC(=N)N)NC(=O)[C@@H](Cc1ccccc1)NC(=O)[C@@H](CCCNC(=N)N)NC(=O)[C@@H](Cc1c[nH]c2ccccc12)NC(=O)CNC(=O)[C@@H](CCCCN)NC(=O)[C@H]1CCCN1C(=O)[C@H](NC(C)=O)C(C)C)C(=O)N[C@H](CO)C(=O)N[C@H](Cc1ccc(O)cc1)C(=O)N[C@H](CO)C(N)=O [compound 872, vpkGwrfremsys]		
72 nM		> 30000 nM	> 30 µM	CSCC[C@@H](NC(=O)[C@@H](CCC(=O)O)NC(=O)[C@@H](Cc1c[nH]cn1)NC(=O)[C@H](Cc1ccccc1)NC(=O)[C@@H](CCCNC(=N)N)NC(=O)[C@@H](Cc1c[nH]c2ccccc12)NC(=O)CNC(=O)[C@@H](CCCCN)NC(=O)[C@H]1CCCN1C(=O)[C@H](NC(C)=O)C(C)C)C(=O)N[C@H](CO)C(=O)N[C@H](Cc1ccc(O)cc1)C(=O)N[C@H](CO)C(N)=O [compound 884, vpkGwrFhemsys]		reduction in binding to MC1R, inversion of D-Phe to L-Phe in the RI sequence (MC1R; relative to RI-MSH): 20 fold
6.5 nM	270 nM	~28000 nM	~27 µM	CSCC[C@@H](NC(=O)[C@@H](CCC(=O)O)NC(=O)[C@@H](Cc1c[nH]cn1)NC(=O)[C@@H](Cc1ccccc1)NC(=O)[C@@H](CCCNC(=N)N)NC(=O)[C@H](Cc1c[nH]c2ccccc12)NC(=O)CNC(=O)[C@@H](CCCCN)NC(=O)[C@H]1CCCN1C(=O)[C@H](NC(C)=O)C(C)C)C(=O)N[C@H](CO)C(=O)N[C@H](Cc1ccc(O)cc1)C(=O)N[C@H](CO)C(N)=O [compound 893, vpkGWrfhemsys]		
380 nM	212000 nM	> 30000 nM	> 30 µM	CSCC[C@@H](NC(=O)[C@@H](CCC(=O)O)NC(=O)[C@@H](Cc1c[nH]cn1)NC(=O)[C@@H](Cc1ccccc1)NC(=O)[C@H](CCCNC(=N)N)NC(=O)[C@@H](Cc1c[nH]c2ccccc12)NC(=O)CNC(=O)[C@@H](CCCCN)NC(=O)[C@H]1CCCN1C(=O)[C@H](NC(C)=O)C(C)C)C(=O)N[C@H](CO)C(=O)N[C@H](Cc1ccc(O)cc1)C(=O)N[C@H](CO)C(N)=O [compound 894, vpkGwRfhemsys]		
19 nM	300 nM	~37000 nM	~37 µM	CSCC[C@@H](NC(=O)[C@@H](CCC(=O)O)NC(=O)[C@H](Cc1c[nH]cn1)NC(=O)[C@@H](Cc1ccccc1)NC(=O)[C@@H](CCCNC(=N)N)NC(=O)[C@@H](Cc1c[nH]c2ccccc12)NC(=O)CNC(=O)[C@@H](CCCCN)NC(=O)[C@H]1CCCN1C(=O)[C@H](NC(C)=O)C(C)C)C(=O)N[C@H](CO)C(=O)N[C@H](Cc1ccc(O)cc1)C(=O)N[C@H](CO)C(N)=O [compound 895, vpkGwrfHemsys]		
